This note sets out measurements from ChEMBL document CHEMBL5233248, “Resveratrol - A comprehensive review of recent advances in anticancer drug design and development” (Eur J Med Chem, 2020).

Test [1] relates to HeLa. Description: Anticancer activity against human HeLa cells assessed as cell growth inhibition measured after 72 hrs by MTT assay. It is filed as functional, cell-based. The note with it: Homo sapiens, HeLa, 72 h; read-out: IC50. On the technique in general: Tetrazolium dyes change colour on reduction, which living cells bring about.
Test [2] relates to A549. Kind of test: Anticancer activity against human A549 cells assessed as cell growth inhibition measured after 72 hrs by MTT assay. The test is classed as functional, cell-based. As to conditions: Homo sapiens, A549, 72 h.
Test [3] can be described thus: Anticancer activity against Lung adenocarcinoma cell line assessed as cell growth inhibition measured after 72 hrs by MTT assay. The note with it: Lung adenocarcinoma cell line, 72 h. The test is classed as functional, cell-based.
The test system of test [4] is A549. Description: Potency index, ratio of test compound IC50 to Resveratrol IC50 for antiproliferative activity against human A549 cells. The test is classed as functional.
In test [5] the test system is HepG2. Description: Anticancer activity against human HepG2 cells. The test is classed as functional, cell-based.
Test [6] deals with A549. Kind of test: Anticancer activity against human A549 cells. The test is classed as functional, cell-based.
The subject of test [7] is HeLa. Kind of test: Anticancer activity against human HeLa cells. It is filed as functional, cell-based.
Test [8] has as its system L1210. Kind of test: Anticancer activity against mouse L1210 cells assessed as cell growth inhibition incubated for 48 hrs by MTT assay. The test is classed as functional, cell-based. The note with it: L1210, 48 h.
Test [9] can be described thus: Anticancer activity against human Molt 4/C8 cells assessed as cell growth inhibition incubated for 48 hrs by MTT assay. The test is classed as functional, cell-based. The note with it: Molt4/C8, 48 h.
Test [10] deals with CCRF-CEM. Kind of test: Anticancer activity against human CEM cells assessed as cell growth inhibition incubated for 48 hrs by MTT assay. The test is classed as functional, cell-based.
For test [11], the system named is CCRF-CEM. Description: Anticancer activity against human CEM cells assessed as cell growth inhibition incubated for 48 hrs by Tryphan blue assay. The test is classed as functional, cell-based.
The test system of test [12] is A549. Kind of test: Anticancer activity against human A549 cells assessed as cell growth inhibition incubated for 48 hrs by Tryphan blue assay. The test is classed as functional, cell-based. The note with it: A549, 48 h.
Test [13] in a line: Potency index, ratio of test compound IC50 to Melphalan IC50 for antiproliferative activity against […] L1210 cells. The test is classed as functional.

As usually defined, the IC50 is the midpoint of a concentration-inhibition curve. With `O=S(=O)(Oc1cc(O)cc(/C=C/c2ccc(O)cc2)c1)c1ccccc1`, the IC50 in [1] came to 8.16 µM; in test [2], 4.38 µM; in test [3], 10.2 µM. For the same molecule, the “Ratio IC50” value in test [4] is 15.

On to `COc1ccc(/C(=C/c2cc(C(F)(F)F)ccc2Cl)C(=O)O)cc1`, for which the IC50 turned out to be 7.49 µM in test [5], 3.77 µM in [6] and 4.79 µM in test [7].

`COc1cc(/C=C/c2ccc(C)cc2)cc(OC)c1OC`: the 50% inhibitory concentration (IC50) in test [8] is 1.2 µM; in [9], 1.4 µM; in test [10], 3.1 µM; in test [11], 2.6 µM; in test [12] it was 2.6 µM. The “Ratio IC50” value in test [13] is on record as 2.
